The values that follow come from patent US11026945B2, “Protein kinase RNA-like endoplasmic reticulum kinase (PERK) inhibitors for prevention and/or treatment of lung injury and/or inflammation” (THE TRUSTEES OF THE UNIVERSITY OF PENNSYLVANIA, priority 2016, dated 2021).

Structures are written as SMILES.

For assay [1], the system named is integrated stress response (ISR) signaling (p-PERK, p-EIF2α, ATF4, CHOP). Briefly: Western blot of ISR signaling in stretched AEC-I monolayers. The class given is cell-based, rat. The text has this: To obtain monolayer rat type-II alveolar epithelial cells (AEC-II), cells were isolated from Sprague-Dawley rats (250-300 g, N=30 purchased from Charles River Laboratories, Wilmington, Mass.) described by Tschumperlin D J, Margulies SS. Equibiaxial deformation-induced injury of alveolar epithelial cells in vitro. Am J Physiol. 1998; 275(6 Pt 1):L1173-83. Epub 1998/12/09 (PubMed PMID: 9843855), with modifications. Briefly, animals were killed and the lungs were harvested. The lung tissue was digested with elastase at 37° C. and distal airways were isolated. Following, cells were placed on rat IgG coated containing no serum for 90 minutes to eliminate contaminating leukocytes and parenchymal cells. This isolation method yielded approximately 95% pure alveolar epithelial cell population. 1.3 million cells were plated on 1 cm diameter fibronectin-coated custom made silastic membranes. In permeability studies, biotin were mixed with fibronectin and membranes were pretreated with oxygen plasma coating to ensure homogenous distribution of the fibronectin. Cells were cultured with 10% fetal bovine serum (FBS)-containing Minimal Essential Medium (MEM) containing low dose antibiotics for 3 days. 32 to 40 monolayers were per rat. […] RNAiMax transfection reagent treatment using serum free media (Opti-MEM, Thermo Fisher Scientific, Waltham, Mass.). This is a negative control for siRNA experiments where serum free media is used for improved transfection efficiency; • B. non-targeting siRNA treatment ([…], Dharmacon) serves a negative control for transfection; • C. 0.5 μg siRNA treatment targeting PERK; • D. 0.5 μg siRNA treatment targeting ATF4; • E. 0.5 μg siRNA treatment targeting CHOP; • F. vehicle control (DMSO) for PI; and • G. 1 μM PI treatment.
The dose of siRNA and PI treatment was selected based on dose-response curves above (FIG. 2A-FIG. 2E). AEC-II transformed to AEC-I cells and formed a complete monolayer by day 4, expressing only AEC-I cell surface markers. On the day of the experiment, the medium was removed and replaced with HEPES-buffered MEM. Cells stretch was performed in a 37° C. incubator. The effect of ISR inhibition or control treatment was compared in the following three conditions (N=5 biological replicates/condition): 1) no stretch (NS) controls; 2) mechanical stretch with 12% surface change (S 12%); and 3) mechanical stretch with 25% surface change (S25%). The cell monolayers were exposed to the above mentioned conditions for 6 hours based on time course of ISR protein expression obtained during preliminary data collection (FIG. 2A-FIG. 2E). All membranes were treated with FITC-labeled streptavidin (Thermo Fisher Scientific) at the end of the experiment and light emission was detected at 488 nm with fluorescent microscopy (Nikon TE300, Melville, N.Y.). In a separate set of experiments (N=30 rats), in which the above mentioned treatment plan and conditions were used, cells were harvested at the end of the experiment by scraping them in RIPA buffer and total protein was extracted (N=3 membranes/treatment group performed for N=5 biological replicates per condition). Co-immunoprecipitation (IP) assays were performed using 5 μg of ZO-1 protein as bait (IP kit, Thermo Fisher Scientific). Following co-IP, immunoblotting was performed for ZO-1, OCLN and CLDN proteins 4, 7 and 18 (Invitrogen, Carlsbad, Calif.).
Rats (N=106) were euthanized with an overdose of sodium pentobarbital (55 mg/kg). The chest was shaved and cleaned with Wexcide. Tracheostomy was performed, and a 14 gauge (G) metal cannula was inserted in the trachea lumen. The animals were connected to a rodent ventilator (Harvard Apparatus Model 640, Holliston, Mass.). Subsequently, the chest and abdomen were opened by a midline incision, and the aorta was transected causing exsanguination. […]

The test system of a further assay is AEC-I monolayers. The experiment in a line: Stretch-induced cell death, ethidium homodimer staining. It is filed as cell-based, rat. The note with it: stretched monolayers, 1 μM PI pretreatment. The text has this:
To assess the effect of ISR inhibition on stretch-induced cell death, dead to live cell ratio was quantified with triple Ethidium homodimer (dead cells)-Calcinein (live cells) and nuclear (DAPI) stain (Thermo Fisher Scientific). Fluorescent light emission from cells was captured with fluorescent microscopy and quantified in the same fashion as described in the “Mechanical stretch activates ISR and cell death in AEC-I” section. N=30 rats were used to obtain data from N=5 biological replicates/condition for each treatment group. Data was expressed as the number of dead cells per total cells as depicted in FIG. 3G. […]
To measure permeability, the silastic membranes were coated with biotinylated fibronectin and cells were cultured on the apical surface. […] Light emission at 488 nm was measured for monolayers using fluorescent microscopy (Nikon TE300, Melville, N.Y.). […] The emitted fluorescence is proportional to the monolayer damage caused by stretch and is detectable by fluorescent microscopy. […] The maximum pixel intensity in the background of unstretched-untreated monolayers was measured and used as a threshold to exclude unstained regions. The percentage of each image area above the threshold intensity was determined and then divided by the value for the unstretched control group to calculate the normalized area percentage (nArea) of each image. […] Data were expressed as ±SEM. […]

The mark [2] stands for this setting: stretched AEC-I monolayers, 1 μM PI, 24 hours pretreatment.
[3] abbreviates: unstretched monolayers, 1 μM PI for 18 hours.

In the case of `Cn1cc(-c2ccc3c(c2)CCN3C(=O)Cc2cccc(C(F)(F)F)c2)c2c(N)ncnc21` [PI, 1-[5-(4-Amino-7-methyl-7H-pyrrolo[2,3-d]pyrimidin-5-yl)indolin-1-yl]-2-(3-trifluoromethylphenyl)ethanone], in assay [1] (setting [2]), the ATF4 entry is recorded as “decreased”, the CHOP entry is listed as “decreased”, the p-EIF2α result is listed as “decreased” and the p-PERK result was “decreased”. Besides, in assay [1] (setting [3]), the “Level of ATF4” value was “unaffected”, the “Level of CHOP” value is recorded as “unaffected”, the “Level of p-EIF2α” value is on record as “unaffected” and the “Level of p-PERK” value is “unaffected”. Besides, in the assay with AEC-I monolayers, the stretch-induced cell death entry is given as “decreased”.
